Experimental data reported in US20230122540A1, “SYSTEMS AND METHODS TO TRACK THE EVOLUTION OF SINGLE CELLS” (Genentech, Inc., priority 2020, published 2023).

What was measured:
Type in all cases: cell-based, human
ATF4, CHOP, GADD34 = assay: qRT-PCR of pro-death genes downstream of ER stress; settings: PC9 and NCI-H1975 cells, day three
Description: RNA extraction and qRT-PCR: RNA was extracted using Qiagen RNeasy Plus kit following manufacturer's instruction. RNA was reverse transcribed using High-Capacity cDNA Reverse Transcription Kit (Thermo Fisher Scientific Cat. No. 4368814). qPCRs were performed using TaqMan™ Fast Advanced Master Mix (Thermo Fisher Scientific Cat. No. 4444557) on ABI QuantStudio 7 Flex Real-Time PCR Systems. HPRT1 was used as the internal control to quantify relative gene expression levels. Taqman probes were obtained from Thermo Fisher Scientific (Cat. No. 431182, 4448490). These probes were used in the study: ATF4 Hs00909569_g1, DDIT3/CHOP Hs00358796_g1, PPP1R15A/GADD34 Hs00169585_m1, SLC7A5 Hs01001183_m1, ETV4 Hs00385910_m1, SPRY4 Hs00540086_m1, DUSP6 Hs04329643_s1, HPRT1 Hs02800695_m1.

PC9 cells = assay: Caspase-Glo 3/7 cell death assay, EGFRi+CCT020312; settings: Caspase-Glo 3/7, 24 h post-treatment
Description: Cell viability and cell death quantification: For experiments shown in FIGS. 24C, 27D, the indicated cells were seeded at desired densities in replicates in 24-well plates and allowed to attach overnight. The following day cells were treated with the indicated compounds. Media containing the appropriate compounds was replenished every 48 hours. At each media change, cell viabilities were quantified using CellTiter-Glo Luminescent Cell Viability Assay (Promega, G7572). For experiments shown in FIG. 191 and FIG. 29D, PC9 cells were seeded in replicates in 96-well plates and allowed to attach overnight. The following day cells were treated with the indicated compounds or compound combinations at the indicated concentrations. Induction of cell death was quantified 24 h post-treatment using Caspase-Glo 3/7 Assay System (Promega, G8093) and cell survival were measured 72 h post-treatment using CellTiter-Glo Luminescent Cell Viability Assay (Promega, G7572). CCT020312 was obtained from EMD Millipore (324879).

NCI-H1975 cells = assay: Clonogenic / CellTiter-Glo assay with allosteric degraders; settings: compared to osimertinib
Description: Clonogenic assay: Cells were seeded at desired densities in two to three replicates in 6-well plates and allowed to attach overnight. The following day cells were treated with the indicated compounds. Media containing the appropriate compounds was replenished every 48-72 hours. At the end of the assay, the cells were washed once with PBS, fixed and stained with crystal violet solution (Sigma Aldrich, HT90132) for 20 minutes, washed with water, and allowed to dry before scanning. For experiments shown in FIG. 18E erlotinib concentration were determined to match the cell viability effect to 1 μM GNE-069 in each cell line, so that 1 μM erlotinib was applied to PC-9 and HCC2935, and 100 nM erlotinib was applied to HCC4006 and HCC827. […]
Cell viability and cell death quantification: For experiments shown in FIGS. 24C, 27D, the indicated cells were seeded at desired densities in replicates in 24-well plates and allowed to attach overnight. […] At each media change, cell viabilities were quantified using CellTiter-Glo Luminescent Cell Viability Assay (Promega, G7572). […] Induction of cell death was quantified 24 h post-treatment using Caspase-Glo 3/7 Assay System (Promega, G8093) and cell survival were measured 72 h post-treatment using CellTiter-Glo Luminescent Cell Viability Assay (Promega, G7572). […]

SMILES	induction of ISR genes in combination with erlotinib or osimertinib (ATF4, CHOP, GADD34)	cell death induction in combination with erlotinib or osimertinib (PC9 cells)	single agent anti-growth activity (NCI-H1975 cells)
CCN(CC)CCC(=O)N1N=C(c2c(-c3ccccc3)c3cc(Br)ccc3[nH]c2=O)CC1c1ccc(Br)cc1 (stereo not drawn) [CCT020312]	further boosted induction of ISR genes by erlotinib and osimertinib	enhanced cell death induction	
O=C(Nc1nccs1)C(c1cc(F)ccc1O)N1Cc2ccccc2C1=O (stereo not drawn) [EAI-045]			very modest single agent activity
